# Results: ChEMBL document CHEMBL2346633, “Design, synthesis, and binding mode prediction of 2-pyridone-based selective CB2 receptor agonists” (Bioorg Med Chem, 2013)
# Key:
# Cannabinoid receptor 2 [1] = biological target: T1, Cannabinoid receptor 2 (Homo sapiens, UniProt P34972); test: Displacement of [H3]-CP-55940 from human recombinant CB2 receptor expressed in CHO cells; type: cell-based
# Cannabinoid receptor 1 = Cannabinoid receptor 1 (Homo sapiens, UniProt P21554); test: Displacement of [H3]-CP-55940 from human recombinant CB1 receptor expressed in CHO cells; type: cell-based
# Sequence of Cannabinoid receptor 1 (P21554 whole entry, looked up): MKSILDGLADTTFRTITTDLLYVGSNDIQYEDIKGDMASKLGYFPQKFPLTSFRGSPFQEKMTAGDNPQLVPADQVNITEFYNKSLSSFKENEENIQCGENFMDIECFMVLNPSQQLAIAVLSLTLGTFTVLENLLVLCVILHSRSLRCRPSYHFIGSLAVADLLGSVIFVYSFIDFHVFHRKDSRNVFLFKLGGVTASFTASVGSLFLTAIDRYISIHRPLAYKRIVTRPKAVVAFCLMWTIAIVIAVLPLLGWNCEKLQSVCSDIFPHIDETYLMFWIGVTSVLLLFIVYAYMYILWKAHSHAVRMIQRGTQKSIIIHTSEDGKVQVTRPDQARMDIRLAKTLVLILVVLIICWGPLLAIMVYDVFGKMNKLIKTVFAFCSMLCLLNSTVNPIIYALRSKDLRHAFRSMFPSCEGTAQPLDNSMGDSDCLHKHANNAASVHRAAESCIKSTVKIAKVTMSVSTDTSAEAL
# Homo sapiens = organism: Homo sapiens; test: Selectivity ratio of Ki for human recombinant CB1 receptor to Ki for human recombinant CB2 receptor
# Cannabinoid receptor 2 [2] = biological target: T1, Cannabinoid receptor 2; test: Agonist activity at human recombinant CB2 receptor expressed in CHO cells assessed as inhibition of forskolin-induced accumulation of cAMP; type: functional, cell-based
# T1 sequence (P34972 whole entry): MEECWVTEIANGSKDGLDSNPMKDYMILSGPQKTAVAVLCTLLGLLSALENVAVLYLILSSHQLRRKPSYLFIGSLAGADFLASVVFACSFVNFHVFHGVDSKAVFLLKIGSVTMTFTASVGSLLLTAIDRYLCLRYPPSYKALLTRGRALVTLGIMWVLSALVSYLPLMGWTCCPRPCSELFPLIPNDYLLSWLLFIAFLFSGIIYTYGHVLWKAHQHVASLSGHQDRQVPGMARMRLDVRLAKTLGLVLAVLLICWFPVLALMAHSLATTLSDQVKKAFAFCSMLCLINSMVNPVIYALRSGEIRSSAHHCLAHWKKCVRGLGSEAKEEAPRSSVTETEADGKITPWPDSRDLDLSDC
Compound,Ki (Cannabinoid receptor 2 [1]) [nM],Ki (Cannabinoid receptor 1) [nM],Ratio Ki (Homo sapiens),IC50 (Cannabinoid receptor 2 [2]) [nM]
CCCCn1c(C)c(C)cc(NC(C)=O)c1=O,> 5000,> 5000,,
CCCCn1c(C)c(C)cc(NC(=O)Cc2ccccc2)c1=O,1310,> 5000,,
CCCCn1cc(C)cc(Oc2nc3ccccc3o2)c1=S,236,,,
CCCCn1c(C)c(C)cc(NC(=O)c2ccccc2F)c1=O,88,617,,
CCCCn1c(C)c(C)cc(NC(=O)c2cccc3ccccc23)c1=O,12,19,1.6,
CCn1c(C)c(C)cc(Oc2nc3ccccc3o2)c1=S,3850,,,
CCCCn1c(C)c(C)cc(NC(=O)c2ccc(C)cc2)c1=O,72,854,,
CCCCn1c(C)c(C)cc(NC(=O)c2ccccc2)c1=O,89,1380,,
CCCCCn1c(C)c(C)cc(Oc2nc3ccccc3o2)c1=S,214,,,
CCCCn1c(C)c(C)cc(NC(=O)c2ccccc2Cl)c1=O,,391,,
CCN1C(=O)C(Sc2nc3ccccc3o2)c2ccccc2C1C (stereo unspecified),42,> 5000,,
CCCCn1c(C)c(C)cc(Oc2nc3ccccc3o2)c1=O,976,,,
CCCCn1c(C)c(C)cc(NC(=O)c2ccccc2C)c1=O,,390,,13
CN1CCCCC1Cn1cc(C(=O)c2cc([N+](=O)[O-])ccc2I)c2ccccc21 (stereo unspecified),,,80,
CCCCn1c(C)c(C)cc(NC(=O)c2cccc(C)c2)c1=O,42,343,,
CCCCCCn1c(C)c(C)cc(Oc2nc3ccccc3o2)c1=S,609,,,
CCCCn1ccc(C)c(Oc2nc3ccccc3o2)c1=S,235,,,
CCCCn1cccc(Oc2nc3ccccc3o2)c1=S,490,,,
CCCn1c(C)c(C)cc(Oc2nc3ccccc3o2)c1=S,276,,,
CCCCn1c(C)c(C)cc(NC(=O)c2ccc3ccccc3c2)c1=O,768,> 5000,,
